# From patent publication US8952024B2, “Herbicidal pyrimidone derivatives” (E I du Pont de Nemours and Company, priority 2009, dated 2015)
# What was measured:
# Type in all cases: in vivo
# [1] = system: windgrass (Apera spica-venti); test: Test B postemergence plant response; settings: Postemergence
# Procedure, shortened: (§1)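 Plants at the 1- to 4-leaf stage (2 to 18 cm tall), grown in pots of peat moss/vermiculite medium with wetting agent and starter nutrients, received postemergence applications of test chemicals. After 13 to 15 days in a greenhouse, injury was rated visually against untreated controls on a 0 (no effect) to 100 (complete control) scale.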
# [2] = system: winter barley (Hordeum vulgare); test: Test B postemergence plant response; settings: Postemergence
# Procedure, shortened: as §1
# [3] = system: canarygrass (Phalaris minor); test: Test B postemergence plant response; settings: Postemergence
# Procedure, shortened: as §1
# [4] = system: chickweed (Stellaria media); test: Test B postemergence plant response; settings: Postemergence
# Procedure, shortened: as §1
# [5] = system: wheat (Triticum aestivum); test: Test A pre-/postemergence plant response; settings: for Wheat plant response rating: visual injury, 0 to 100 scale (0 no effect, 100 complete control), approx. ten days
# Procedure, shortened: (§2)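 Injury scores (0, no effect; 100, complete control) come from visual comparison with untreated controls roughly ten days post-treatment. Test chemicals in a surfactant-containing non-phytotoxic solvent were applied as a directed soil spray preemergence and to one- to two-leaf seedlings postemergence.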
# [6] = system: velvetleaf (Abutilon theophrasti); test: Test A pre-/postemergence plant response; settings: for Velvetleaf plant response rating: visual injury, 0 to 100 scale (0 no effect, 100 complete control), approx. ten days
# Procedure, shortened: as §2
# [7] = system: large crabgrass (Digitaria sanguinalis); test: Test A pre-/postemergence plant response; settings: for Crabgrass, Large plant response rating: visual injury, 0 to 100 scale (0 no effect, 100 complete control), approx. ten days
# Procedure, shortened: as §2
# [8] = system: barnyardgrass (Echinochloa crus-galli); test: Test A pre-/postemergence plant response; settings: for Barnyardgrass plant response rating: visual injury, 0 to 100 scale (0 no effect, 100 complete control), approx. ten days
# Procedure, shortened: as §2
# [9] = system: giant foxtail (Setaria faberii); test: Test A pre-/postemergence plant response; settings: for Foxtail, Giant plant response rating: visual injury, 0 to 100 scale (0 no effect, 100 complete control), approx. ten days
# Procedure, shortened: as §2
# [10] = system: corn (Zea mays); test: Test A pre-/postemergence plant response; settings: for Corn plant response rating: visual injury, 0 to 100 scale (0 no effect, 100 complete control), approx. ten days
# Procedure, shortened: as §2
# [11] = system: pigweed (Amaranthus retroflexus); test: Test A pre-/postemergence plant response; settings: for Pigweed plant response rating: visual injury, 0 to 100 scale (0 no effect, 100 complete control), approx. ten days
# Procedure, shortened: as §2
# [12] = system: morningglory (Ipomoea spp.); test: Test A pre-/postemergence plant response; settings: for Morningglory plant response rating: visual injury, 0 to 100 scale (0 no effect, 100 complete control), approx. ten days
# Procedure, shortened: as §2
# [13] = 31 g ai/ha, 0 to 100 scale (0 no effect, 100 complete control)
# [14] = 62 g ai/ha, scale 0 to 100 (0 no effect, 100 complete control)
# [15] = 125 g ai/ha, scale 0 to 100 (0 no effect, 100 complete control)
# [16] = 250 g ai/ha, scale 0 to 100 (0 no effect, 100 complete control), 13 to 15 days
# [17] = Postemergence, 125 g ai/ha, 0 to 100 scale where 0 is no effect and 100 is complete control
# [18] = Preemergence, 125 g ai/ha, 0 to 100 scale, 0 = no effect, 100 = complete control
# [19] = Preemergence, 500 g ai/ha, 0 to 100 scale, 0 = no effect, 100 = complete control
smiles,measurement,setting,value
Cc1cc(-n2c(-c3cccc(F)c3)ncc(C(=O)C3=C(O)CCCC3=O)c2=O)ccc1F [Compound 191],"Plant response rating, Windgrass",[1]; [13],55
same,"Plant response rating, Windgrass",[1]; [14],85
same,"Plant response rating, Windgrass",[1]; [15],85
same,"Plant response rating, Windgrass",[1]; [16],100
same,"Plant response rating, Barley",[2]; [13],5
same,"Plant response rating, Barley",[2]; [14],50
same,"Plant response rating, Barley",[2]; [15],50
same,"Plant response rating, Barley",[2]; [16],70
same,"Plant response rating, Canarygrass",[3]; [13],20
same,"Plant response rating, Canarygrass",[3]; [14],50
same,"Plant response rating, Canarygrass",[3]; [15],60
same,"Plant response rating, Canarygrass",[3]; [16],85
same,"Plant response rating, Chickweed",[4]; [13],98
same,"Plant response rating, Chickweed",[4]; [14],98
same,"Plant response rating, Chickweed",[4]; [15],98
same,"Plant response rating, Chickweed",[4]; [16],100
same,"Plant response rating, Wheat",[5]; [17],0
same,Wheat plant response rating,"[5]; Postemergence, 500 g ai/ha",50
same,"Plant response rating, Wheat",[5]; [18],0
same,"Plant response rating, Wheat",[5]; [19],20
same,"Plant response rating, Velvetleaf",[6]; [17],100
same,Velvetleaf plant response rating,"[6]; Postemergence, 500 g ai/ha",100
same,"Plant response rating, Velvetleaf",[6]; [18],60
same,"Plant response rating, Velvetleaf",[6]; [19],100
same,"Plant response rating, Crabgrass, Large",[7]; [17],70
same,"Crabgrass, Large plant response rating","[7]; Postemergence, 500 g ai/ha",100
same,"Plant response rating, Crabgrass, Large",[7]; [18],50
same,"Plant response rating, Crabgrass, Large",[7]; [19],100
same,"Plant response rating, Barnyardgrass",[8]; [17],90
same,Barnyardgrass plant response rating,"[8]; Postemergence, 500 g ai/ha",100
same,"Plant response rating, Barnyardgrass",[8]; [18],10
same,"Plant response rating, Barnyardgrass",[8]; [19],80
same,"Plant response rating, Foxtail, Giant",[9]; [17],80
same,"Foxtail, Giant plant response rating","[9]; Postemergence, 500 g ai/ha",100
same,"Plant response rating, Foxtail, Giant",[9]; [18],40
same,"Plant response rating, Foxtail, Giant",[9]; [19],90
same,"Plant response rating, Corn",[10]; [17],0
same,Corn plant response rating,"[10]; Postemergence, 500 g ai/ha",50
same,"Plant response rating, Corn",[10]; [18],0
same,"Plant response rating, Corn",[10]; [19],30
same,"Plant response rating, Pigweed",[11]; [17],80
same,Pigweed plant response rating,"[11]; Postemergence, 500 g ai/ha",90
same,"Plant response rating, Pigweed",[11]; [18],80
same,"Plant response rating, Pigweed",[11]; [19],100
same,"Plant response rating, Morningglory",[12]; [17],90
same,Morningglory plant response rating,"[12]; Postemergence, 500 g ai/ha",100
same,"Plant response rating, Morningglory",[12]; [18],0
same,"Plant response rating, Morningglory",[12]; [19],70
O=C1CCCC(O)=C1C(=O)c1cnc(-c2ccc(F)cc2)n(C2CCCCC2)c1=O [Compound 197],"Plant response rating, Windgrass",[1]; [13],10
same,"Plant response rating, Windgrass",[1]; [14],50
same,"Plant response rating, Windgrass",[1]; [16],98
same,"Plant response rating, Barley",[2]; [13],0
same,"Plant response rating, Barley",[2]; [14],5
same,"Plant response rating, Barley",[2]; [15],10
same,"Plant response rating, Barley",[2]; [16],40
same,"Plant response rating, Canarygrass",[3]; [13],5
same,"Plant response rating, Canarygrass",[3]; [14],30
same,"Plant response rating, Canarygrass",[3]; [15],40
same,"Plant response rating, Canarygrass",[3]; [16],60
same,"Plant response rating, Chickweed",[4]; [13],100
same,"Plant response rating, Chickweed",[4]; [14],100
same,"Plant response rating, Chickweed",[4]; [15],100
same,"Plant response rating, Chickweed",[4]; [16],100
same,"Plant response rating, Wheat",[5]; [17],0
same,Wheat plant response rating,"[5]; Postemergence, 500 g ai/ha",0
same,"Plant response rating, Wheat",[5]; [18],0
same,"Plant response rating, Wheat",[5]; [19],20
same,"Plant response rating, Velvetleaf",[6]; [17],100
same,Velvetleaf plant response rating,"[6]; Postemergence, 500 g ai/ha",100
same,"Plant response rating, Velvetleaf",[6]; [18],40
same,"Plant response rating, Velvetleaf",[6]; [19],90
same,"Plant response rating, Crabgrass, Large",[7]; [17],70
same,"Crabgrass, Large plant response rating","[7]; Postemergence, 500 g ai/ha",100
same,"Plant response rating, Crabgrass, Large",[7]; [18],0
same,"Plant response rating, Crabgrass, Large",[7]; [19],60
same,"Plant response rating, Barnyardgrass",[8]; [17],80
same,Barnyardgrass plant response rating,"[8]; Postemergence, 500 g ai/ha",100
same,"Plant response rating, Barnyardgrass",[8]; [18],0
same,"Plant response rating, Barnyardgrass",[8]; [19],40
same,"Plant response rating, Foxtail, Giant",[9]; [17],80
same,"Foxtail, Giant plant response rating","[9]; Postemergence, 500 g ai/ha",100
same,"Plant response rating, Foxtail, Giant",[9]; [18],0
same,"Plant response rating, Foxtail, Giant",[9]; [19],50
same,"Plant response rating, Corn",[10]; [17],20
same,Corn plant response rating,"[10]; Postemergence, 500 g ai/ha",50
same,"Plant response rating, Corn",[10]; [18],0
same,"Plant response rating, Corn",[10]; [19],30
same,"Plant response rating, Pigweed",[11]; [17],100
same,Pigweed plant response rating,"[11]; Postemergence, 500 g ai/ha",100
same,"Plant response rating, Pigweed",[11]; [18],20
same,"Plant response rating, Pigweed",[11]; [19],100
same,"Plant response rating, Morningglory",[12]; [17],100
same,Morningglory plant response rating,"[12]; Postemergence, 500 g ai/ha",100
same,"Plant response rating, Morningglory",[12]; [18],0
same,"Plant response rating, Morningglory",[12]; [19],60
